In patent US20140309974A1 (priority 2013, published 2014):

How the values were obtained:
[1] = test system: HSV-1 KOS strain expressing green fluorescent protein (GFP); test: HSV-1 (KOS, GFP reporter) infection of NIH 3T3 cells, flow cytometry of GFP-positive cells; assay type: cell-based, herpes simplex virus-1 on NIH 3T3 cells; settings: for antiviral effect on HSV-1 infection (in words) / percentage of infected (GFP-positive) cells after treatment: NIH 3T3 cells; for antiviral effect on HSV-1 infection (in words): HSV-1 KOS GFP, flow cytometry / fluorescence images; for percentage of infected (GFP-positive) cells after treatment: MOI about 0.1, about 16 hours, no drug gives about 60%
Description: Cell culture: NIH 3T3 cells were grown on 15 cm plates in DMEM supplemented with about 5% Fetalplex and about 1% penicillin/streptomycin and kept in an about 37° C. incubator with about 5% CO2. To propagate cells, the experiments involved plating 107 on each […] plate and splitting the cells every 24 hours. For each experimental iteration, the experiments plated 2×10^5 cells/well in a 24-well plate. To minimize variance generated from different batches of cells, the trial group and crossover group were tested and compared using the same batch of cells for each iteration.
Viral infection: HSV-1 KOS strain expressing green fluorescent protein (GFP) in frame with the ICPO protein between amino acids 104 and 105 was used. The virus was prepared by propagation of virus on a confluent monolayer of Vero cells. Supernatants from infected cells were collected and centrifuged to separate cell debris. The cell pellet in residual medium was frozen and thawed three times at about −80° C. and about 37° C., respectively. The residual supernatant was then pooled together with the original supernatant, and viral titers were determined by a standard plaque assay on Vero cell monolayers. Multiplicity of infection (MOI) of about 0.1 was used throughout except as indicated. To control MOI, cells, virus, and drug combinations were added at the same time and incubated at about 37° C. After about 17 hours, culture medium was aspirated, and cells were detached with PBS-EDTA treatment at about 37° C. for about 5 minutes. Detached cells were transferred to flow cytometry tubes, pelleted, and re-suspended in about 1.6% PFA and kept at about 4° C. until analysis. A BD FACS Canto II was used for flow cytometry analysis.
HSV-1 infectious disease model: HSV-1 infection on an NIH 3T3 fibroblast cell line was used as an in vitro model system to search for new therapeutic drug combinations. The antiviral drugs that are used in the therapeutic model include three antiviral cytokines (IFN-α, IFN-β, and IFN-γ), ribavirin, acyclovir, and TNF-α. Virus-infected cells were treated with single drugs or drug combinations and cultured for about 16 hours. The HSV-1 strain used to infect the NIH 3T3 cells encodes a GFP reporter in infected cells, allowing flow cytometric analysis of cells to measure the rate and extent of infection, because the fluorescence intensity of GFP correlated to the presence of virus. Determination of efficacy of drug treatments was made by comparing the number of GFP-negative non-infected cells in the absence or presence of drug treatment. This value was considered the antiviral readout of a drug treatment.
The infectious dose of HSV-1 used (MOI: number of infectious virions per cell) is an important parameter when evaluating the outcome of potential therapies. […] An MOI of about 0.1 was used throughout the studies.

[2] = high doses of ribavirin; cited from earlier work

TNF-α
antiviral effect on HSV-1 infection (in words) [1]: potentiated HSV-1 infection, resulting in more infected cells than the non-treated control

Nc1nc2c(ncn2COCCO)c(=O)[nH]1 [acyclovir]
viral infection over incubation time, day 1 to day 4 (in words) ([1]; HSV-1-infected cells cultured 1 day to 4 days in presence of drug, flow cytometry): remained constant as time increased
antiviral effect on HSV-1 infection (in words) [1]: reduced the infection rate, though a large percentage of cells were infected despite drug treatment
percentage of infected (GFP-positive) cells after treatment [1]: about 15%

NC(=O)c1ncn([C@@H]2O[C@H](CO)[C@@H](O)[C@H]2O)n1 [ribavirin]
percentage of infected (GFP-positive) cells after treatment [1]: about 5%
reported side effects [2]: cause anemia, to be teratogenic in some animal tests, and to inhibit DNA synthesis in a dosage dependent manner
